Some targets named below: Cytochrome P450 3A4 (Homo sapiens, UniProt P08684); Cytochrome P450 2D6 (Homo sapiens, UniProt P10635); Cytochrome P450 2C9 (Homo sapiens, UniProt P11712).
The next data set addresses T1, Caspase-3 (Homo sapiens, UniProt P42574).
T1 sequence (P42574 whole entry): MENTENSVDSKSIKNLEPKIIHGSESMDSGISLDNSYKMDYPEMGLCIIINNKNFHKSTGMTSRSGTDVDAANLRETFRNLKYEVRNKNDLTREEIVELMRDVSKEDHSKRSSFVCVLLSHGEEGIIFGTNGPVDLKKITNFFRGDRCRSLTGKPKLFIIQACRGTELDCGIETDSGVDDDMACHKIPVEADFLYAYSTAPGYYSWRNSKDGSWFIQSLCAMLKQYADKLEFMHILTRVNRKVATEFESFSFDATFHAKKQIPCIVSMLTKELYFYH
The format is functional.

Data set [1] addresses T2, Sentrin-specific protease 8 (Homo sapiens, UniProt Q96LD8).
T2 sequence (Q96LD8 whole entry): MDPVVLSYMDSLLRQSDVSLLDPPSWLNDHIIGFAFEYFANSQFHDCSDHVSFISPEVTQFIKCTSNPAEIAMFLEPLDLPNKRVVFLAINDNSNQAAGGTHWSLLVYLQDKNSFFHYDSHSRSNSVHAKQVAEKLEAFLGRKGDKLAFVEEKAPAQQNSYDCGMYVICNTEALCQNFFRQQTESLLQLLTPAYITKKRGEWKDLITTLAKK
The format is functional.

Data set [2] has as its target T3, Sentrin-specific protease 7 (Homo sapiens, UniProt Q9BQF6).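 Note: Luminescence-based dose-response confirmation of ultra-high-throughput screening hits, measuring inhibition of SENP7.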
T3 sequence (Q9BQF6 whole entry): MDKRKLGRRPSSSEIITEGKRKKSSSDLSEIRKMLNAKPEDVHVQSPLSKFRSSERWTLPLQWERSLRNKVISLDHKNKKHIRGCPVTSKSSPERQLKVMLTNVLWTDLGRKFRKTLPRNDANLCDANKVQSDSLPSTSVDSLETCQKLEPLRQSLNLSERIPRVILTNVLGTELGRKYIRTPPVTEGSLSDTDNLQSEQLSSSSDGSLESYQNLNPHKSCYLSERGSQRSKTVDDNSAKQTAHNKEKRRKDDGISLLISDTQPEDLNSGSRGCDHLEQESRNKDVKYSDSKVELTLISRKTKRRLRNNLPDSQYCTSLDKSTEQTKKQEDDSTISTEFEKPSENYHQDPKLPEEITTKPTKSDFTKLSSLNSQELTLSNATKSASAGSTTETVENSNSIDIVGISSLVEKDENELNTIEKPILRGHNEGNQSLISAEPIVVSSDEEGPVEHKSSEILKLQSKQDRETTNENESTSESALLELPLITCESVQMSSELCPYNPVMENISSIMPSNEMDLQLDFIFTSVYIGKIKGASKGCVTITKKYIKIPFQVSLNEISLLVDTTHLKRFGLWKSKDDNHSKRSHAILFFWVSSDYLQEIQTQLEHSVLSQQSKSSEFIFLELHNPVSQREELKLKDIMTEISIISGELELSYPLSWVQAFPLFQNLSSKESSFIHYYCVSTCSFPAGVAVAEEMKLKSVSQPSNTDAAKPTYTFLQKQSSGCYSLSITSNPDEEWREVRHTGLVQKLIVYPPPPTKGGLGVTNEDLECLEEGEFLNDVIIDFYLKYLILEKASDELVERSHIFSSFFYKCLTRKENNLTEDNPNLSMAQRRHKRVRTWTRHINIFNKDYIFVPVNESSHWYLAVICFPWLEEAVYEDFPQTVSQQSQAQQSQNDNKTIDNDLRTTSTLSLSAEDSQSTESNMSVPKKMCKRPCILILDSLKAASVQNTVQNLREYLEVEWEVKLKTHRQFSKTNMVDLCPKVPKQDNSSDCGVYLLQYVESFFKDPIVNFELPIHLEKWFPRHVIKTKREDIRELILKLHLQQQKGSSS
The format is functional.

The target in data set [3] is T4, Sentrin-specific protease 6 (Homo sapiens, UniProt Q9GZR1).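 Note: Luminescence-based dose-response confirmatory assay of SENP6 inhibition, following up an ultra-high-throughput screen.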
T4 sequence (Q9GZR1 whole entry): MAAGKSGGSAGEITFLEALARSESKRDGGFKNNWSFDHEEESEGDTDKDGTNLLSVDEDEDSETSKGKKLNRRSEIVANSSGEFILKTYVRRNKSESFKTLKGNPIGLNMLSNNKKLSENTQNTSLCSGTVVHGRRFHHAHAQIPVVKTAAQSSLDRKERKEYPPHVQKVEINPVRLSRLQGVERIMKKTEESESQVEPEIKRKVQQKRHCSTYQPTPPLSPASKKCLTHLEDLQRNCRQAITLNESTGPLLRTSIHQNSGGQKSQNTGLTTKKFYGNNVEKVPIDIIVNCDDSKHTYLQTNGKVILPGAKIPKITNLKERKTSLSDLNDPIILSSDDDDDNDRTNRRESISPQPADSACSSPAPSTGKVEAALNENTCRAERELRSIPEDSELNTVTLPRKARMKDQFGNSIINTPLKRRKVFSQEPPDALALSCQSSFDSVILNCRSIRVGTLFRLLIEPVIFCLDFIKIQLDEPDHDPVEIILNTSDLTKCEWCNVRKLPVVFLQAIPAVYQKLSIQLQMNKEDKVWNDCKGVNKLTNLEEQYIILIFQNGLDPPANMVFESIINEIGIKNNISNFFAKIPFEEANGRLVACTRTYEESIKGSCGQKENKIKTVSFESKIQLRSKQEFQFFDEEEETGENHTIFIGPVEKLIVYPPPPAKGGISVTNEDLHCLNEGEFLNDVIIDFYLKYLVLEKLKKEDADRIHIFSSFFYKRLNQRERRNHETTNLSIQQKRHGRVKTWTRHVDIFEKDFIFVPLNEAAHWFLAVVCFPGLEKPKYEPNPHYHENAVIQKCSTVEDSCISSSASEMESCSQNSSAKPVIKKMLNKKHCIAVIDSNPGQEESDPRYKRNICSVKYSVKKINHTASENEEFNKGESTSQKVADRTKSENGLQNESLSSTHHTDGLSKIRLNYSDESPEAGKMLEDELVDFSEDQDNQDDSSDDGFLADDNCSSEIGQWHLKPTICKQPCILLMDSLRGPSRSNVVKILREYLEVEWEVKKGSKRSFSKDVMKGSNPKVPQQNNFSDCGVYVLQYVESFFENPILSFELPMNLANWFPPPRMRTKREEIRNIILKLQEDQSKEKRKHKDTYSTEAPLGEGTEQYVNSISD
The format is functional.

The target of a further data set is T5, Cytochrome P450 1A2 (Homo sapiens, UniProt P05177).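 Note: PubChem cytochrome P450 panel assay, CYP1A2 panel member.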
T5 sequence (P05177 whole entry): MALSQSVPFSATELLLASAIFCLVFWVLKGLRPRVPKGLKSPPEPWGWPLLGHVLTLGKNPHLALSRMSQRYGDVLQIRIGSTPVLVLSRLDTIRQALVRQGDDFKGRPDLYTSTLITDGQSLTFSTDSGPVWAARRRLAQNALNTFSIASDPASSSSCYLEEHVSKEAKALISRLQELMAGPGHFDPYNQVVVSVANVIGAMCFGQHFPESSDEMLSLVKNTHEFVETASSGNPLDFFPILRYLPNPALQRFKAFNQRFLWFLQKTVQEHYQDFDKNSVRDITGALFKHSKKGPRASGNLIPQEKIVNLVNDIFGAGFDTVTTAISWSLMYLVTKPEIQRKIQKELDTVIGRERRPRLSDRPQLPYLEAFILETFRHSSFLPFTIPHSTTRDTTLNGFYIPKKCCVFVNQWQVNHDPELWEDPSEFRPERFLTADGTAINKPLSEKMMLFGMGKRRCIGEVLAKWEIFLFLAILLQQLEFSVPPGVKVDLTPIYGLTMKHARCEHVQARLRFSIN

The next data set deals with Steroidogenic factor 1 (Homo sapiens, UniProt Q13285). As to the kind of experiment: Counterscreen for inverse agonists of the liver receptor homolog-1 (LRH-1; NR5A2): Luminescence-based cell-based high throughput dose response assay to identify inverse agonists of the Steroidogenic Factor 1 Nuclear Receptor (SF1; NR5A1). The format is functional.
Data set [4] in a line: StAR promoter reporter inhibition counter-screen, dose response, counter-screen for LRH-1 inverse agonist project, cell-based, luminescence, luciferase reporter (AID 651969). The format is functional.
Data set [5] concerns the target Nuclear receptor subfamily 5 group A member 2 (Homo sapiens, UniProt O00482). The format is functional, cell-based.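 Note: HEK293T cells transfected with LRH-1 and a StAR promoter luciferase reporter; potency for inhibitors that lower LRH-1 driven reporter light.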
In data set [6] the target is T6, Polyadenylate-binding protein 1 (Homo sapiens, UniProt P11940). As to the kind of experiment: PABP1 MLLE–PAM2 binding inhibitor potency, dose response, biochemical, fluorescence polarization, FITC-PAM2 peptide (AID 602259). The format is functional. The following applies: read-out: IC50_Mean.
The target in data set [7] is T6, Polyadenylate-binding protein 1. As to the kind of experiment: PABP1 MLLE–PAM2 interaction inhibitors, dose response, miRNA deadenylation inhibitor project, biochemical, fluorescence polarization, Cy5-PAM2 peptide, secondary (AID 602260). The format is functional. Conditions: read-out: IC50_Mean.
Another data set deals with Cytochrome P450 2C19 (Homo sapiens, UniProt P33261). As to the kind of experiment: Cytochrome panel assay with activity outcomes. Panel member name: p450-cyp2c19 Compounds with AC50 equal or less than 10 uM are considered active. The format is functional. Conditions: read-out: AC50.
Data set [8] can be described thus: Luminescence Cell-Based Dose Retest to Confirm Inhibitors of Cancer Stem Cells. [Related pubchem assays (depositor defined):AID2717, AID2721]. The format is functional. The following applies: Homo sapiens.
The target in the next data set is Nonstructural protein 1 (Influenza A virus, UniProt Q194T2). The format is functional, Influenza A virus (A/California/07/2009(H1N1)).
For the next data set, the system named is INS1. Put plainly: beta cell apoptosis inhibitors, cytokine rescue, dose response, luminescence, retest (AID 449756).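 Note: cell death triggered by IL-1 beta plus TNF-alpha plus IFN-gamma mixture; protective hits raise ATP signal compared with cytokine alone wells.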 The format is functional, cell-based. The following applies: Rattus norvegicus.
Data set [9] in a line: cytotoxicity in HEK-293T cells, dose response, cytotoxicity control for TCR NF-kB inhibitor project, luminescence, T-cell screen hits (AID 489026).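 Note: cells exposed to compound about 14 hours before the viability readout.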 The format is functional, cell-based.

The source made the active and inactive calls.

Sequence of Cytochrome P450 3A4 (P08684 whole entry): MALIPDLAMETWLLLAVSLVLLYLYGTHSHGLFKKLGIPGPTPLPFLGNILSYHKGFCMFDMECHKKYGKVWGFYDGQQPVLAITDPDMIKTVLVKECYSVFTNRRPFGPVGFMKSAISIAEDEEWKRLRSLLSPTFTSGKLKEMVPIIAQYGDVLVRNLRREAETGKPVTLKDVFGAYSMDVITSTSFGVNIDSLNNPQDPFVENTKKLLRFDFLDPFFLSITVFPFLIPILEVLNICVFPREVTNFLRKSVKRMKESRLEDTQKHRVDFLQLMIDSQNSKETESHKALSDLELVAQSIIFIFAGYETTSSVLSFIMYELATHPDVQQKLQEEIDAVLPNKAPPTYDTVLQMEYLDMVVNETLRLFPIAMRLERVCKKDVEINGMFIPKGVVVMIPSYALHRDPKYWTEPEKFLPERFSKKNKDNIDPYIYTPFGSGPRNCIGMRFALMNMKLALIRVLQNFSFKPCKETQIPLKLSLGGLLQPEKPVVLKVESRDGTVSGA
Sequence of Cytochrome P450 2C19 (P33261 whole entry): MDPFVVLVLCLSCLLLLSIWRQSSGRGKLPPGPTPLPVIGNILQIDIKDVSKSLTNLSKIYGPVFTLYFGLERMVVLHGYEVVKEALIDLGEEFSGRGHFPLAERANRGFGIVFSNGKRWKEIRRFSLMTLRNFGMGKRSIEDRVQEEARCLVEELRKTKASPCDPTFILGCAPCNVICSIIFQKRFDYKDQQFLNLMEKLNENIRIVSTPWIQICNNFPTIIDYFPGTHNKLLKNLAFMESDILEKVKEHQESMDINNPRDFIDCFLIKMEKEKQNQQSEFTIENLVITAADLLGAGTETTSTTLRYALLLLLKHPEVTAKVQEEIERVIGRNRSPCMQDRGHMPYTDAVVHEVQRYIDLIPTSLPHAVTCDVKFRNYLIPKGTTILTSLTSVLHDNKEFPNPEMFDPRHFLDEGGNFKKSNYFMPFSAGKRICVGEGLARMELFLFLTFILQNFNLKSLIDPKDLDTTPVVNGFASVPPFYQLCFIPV
T6 sequence (P11940 whole entry): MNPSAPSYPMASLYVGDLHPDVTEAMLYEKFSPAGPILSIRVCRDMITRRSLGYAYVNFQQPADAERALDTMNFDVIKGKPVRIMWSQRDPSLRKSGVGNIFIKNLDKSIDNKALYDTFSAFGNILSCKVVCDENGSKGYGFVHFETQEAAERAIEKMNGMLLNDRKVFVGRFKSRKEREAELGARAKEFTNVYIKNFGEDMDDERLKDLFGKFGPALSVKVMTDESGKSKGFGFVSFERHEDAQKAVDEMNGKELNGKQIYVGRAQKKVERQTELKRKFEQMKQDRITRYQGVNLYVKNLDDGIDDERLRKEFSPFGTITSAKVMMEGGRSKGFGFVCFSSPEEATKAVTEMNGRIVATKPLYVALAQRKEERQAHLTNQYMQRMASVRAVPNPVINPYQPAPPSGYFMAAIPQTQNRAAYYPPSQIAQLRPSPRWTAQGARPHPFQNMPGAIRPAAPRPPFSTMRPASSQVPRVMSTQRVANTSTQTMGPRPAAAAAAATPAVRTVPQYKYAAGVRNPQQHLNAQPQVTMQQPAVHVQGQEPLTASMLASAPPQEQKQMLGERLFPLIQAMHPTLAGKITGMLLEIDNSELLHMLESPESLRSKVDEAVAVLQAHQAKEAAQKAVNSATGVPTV
Sequence of Cytochrome P450 2D6 (P10635 whole entry): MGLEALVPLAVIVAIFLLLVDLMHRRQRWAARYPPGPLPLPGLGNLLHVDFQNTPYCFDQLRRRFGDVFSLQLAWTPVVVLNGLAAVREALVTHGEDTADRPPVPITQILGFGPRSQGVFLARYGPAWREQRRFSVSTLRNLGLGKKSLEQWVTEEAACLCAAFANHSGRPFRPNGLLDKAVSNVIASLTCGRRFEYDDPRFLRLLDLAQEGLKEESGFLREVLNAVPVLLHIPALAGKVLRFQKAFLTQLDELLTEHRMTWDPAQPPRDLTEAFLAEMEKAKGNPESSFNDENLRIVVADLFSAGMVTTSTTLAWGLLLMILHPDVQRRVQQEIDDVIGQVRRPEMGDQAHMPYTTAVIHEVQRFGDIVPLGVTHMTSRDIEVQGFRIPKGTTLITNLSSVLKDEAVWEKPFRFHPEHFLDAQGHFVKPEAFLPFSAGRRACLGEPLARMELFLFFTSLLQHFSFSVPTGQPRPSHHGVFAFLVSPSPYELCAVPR
Sequence of Steroidogenic factor 1 (Q13285 whole entry): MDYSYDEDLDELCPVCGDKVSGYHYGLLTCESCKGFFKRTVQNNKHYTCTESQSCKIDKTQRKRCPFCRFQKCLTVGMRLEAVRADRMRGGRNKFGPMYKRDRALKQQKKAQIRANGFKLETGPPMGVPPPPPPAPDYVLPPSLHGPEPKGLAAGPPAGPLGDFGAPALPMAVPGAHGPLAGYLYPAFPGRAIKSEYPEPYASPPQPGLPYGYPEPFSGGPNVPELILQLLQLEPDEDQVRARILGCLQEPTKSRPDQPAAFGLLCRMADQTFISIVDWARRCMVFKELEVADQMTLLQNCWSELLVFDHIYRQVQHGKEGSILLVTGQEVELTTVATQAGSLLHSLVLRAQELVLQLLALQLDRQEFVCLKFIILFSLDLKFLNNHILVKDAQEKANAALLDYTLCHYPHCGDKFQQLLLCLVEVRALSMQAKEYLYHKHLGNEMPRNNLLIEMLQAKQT
Sequence of Cytochrome P450 2C9 (P11712 whole entry): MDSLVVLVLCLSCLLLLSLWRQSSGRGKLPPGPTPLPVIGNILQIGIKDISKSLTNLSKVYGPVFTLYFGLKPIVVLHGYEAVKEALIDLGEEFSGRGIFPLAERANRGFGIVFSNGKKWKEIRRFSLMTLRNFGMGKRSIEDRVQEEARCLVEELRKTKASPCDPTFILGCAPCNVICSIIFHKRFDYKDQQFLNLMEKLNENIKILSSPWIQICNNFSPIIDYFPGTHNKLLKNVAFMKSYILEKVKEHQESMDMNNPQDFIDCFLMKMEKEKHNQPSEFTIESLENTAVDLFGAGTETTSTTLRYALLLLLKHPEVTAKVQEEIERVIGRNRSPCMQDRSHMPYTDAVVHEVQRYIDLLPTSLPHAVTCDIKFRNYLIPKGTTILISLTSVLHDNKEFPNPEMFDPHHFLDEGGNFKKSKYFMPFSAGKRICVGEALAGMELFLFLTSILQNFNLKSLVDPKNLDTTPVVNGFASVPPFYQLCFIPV
Sequence of Nuclear receptor subfamily 5 group A member 2 (O00482 whole entry): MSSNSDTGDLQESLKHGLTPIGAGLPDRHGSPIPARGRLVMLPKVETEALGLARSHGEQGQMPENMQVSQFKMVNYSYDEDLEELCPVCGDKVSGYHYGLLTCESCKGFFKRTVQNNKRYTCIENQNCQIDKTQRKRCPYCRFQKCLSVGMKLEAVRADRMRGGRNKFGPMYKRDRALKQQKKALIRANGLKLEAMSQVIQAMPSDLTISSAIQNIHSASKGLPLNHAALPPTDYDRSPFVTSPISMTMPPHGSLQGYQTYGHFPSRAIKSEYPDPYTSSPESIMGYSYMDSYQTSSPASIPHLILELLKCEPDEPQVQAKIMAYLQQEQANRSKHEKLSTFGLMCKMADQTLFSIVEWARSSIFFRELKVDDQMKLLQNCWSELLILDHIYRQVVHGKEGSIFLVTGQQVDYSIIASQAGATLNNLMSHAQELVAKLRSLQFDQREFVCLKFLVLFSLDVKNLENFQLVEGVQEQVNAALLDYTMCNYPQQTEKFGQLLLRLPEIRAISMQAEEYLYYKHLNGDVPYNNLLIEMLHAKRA
Sequence of Nonstructural protein 1 (Q194T2 whole entry): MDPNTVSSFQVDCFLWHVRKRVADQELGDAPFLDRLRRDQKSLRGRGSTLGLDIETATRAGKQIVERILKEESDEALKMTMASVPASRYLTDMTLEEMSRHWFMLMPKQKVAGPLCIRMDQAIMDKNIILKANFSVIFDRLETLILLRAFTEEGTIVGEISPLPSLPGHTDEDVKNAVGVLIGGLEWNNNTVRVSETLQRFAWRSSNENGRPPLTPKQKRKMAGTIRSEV

On to `O=C(Nc1cc(Cl)cc(Cl)c1)c1cccc(OC(F)F)c1`, for which the IC50 is > 100 µM (inactive) on Caspase-3, 53.9 µM (active) in [1], 11.8 µM (active) in data set [2] and 46.9 µM (active) in [3].
`CCOC(=O)C1=C(C)N=C2SC(C(=O)OC)=CC(=O)N2C1c1ccc(F)cc1` (stereo not drawn): the AC50 result at Cytochrome P450 3A4 is “inconclusive”; on Cytochrome P450 2D6, 12.6 µM (inconclusive); on Cytochrome P450 1A2, 31.6 µM (inconclusive).
For the compound `COCCn1c(C)cc(/C=C(\C#N)C(=O)OCC(=O)Nc2ccc(S(N)(=O)=O)cc2)c1C`, the values for the IC50 (on Steroidogenic factor 1; in [4]; in data set [5]) were 3.99 µM (active), 35.9 µM (inactive) and 35.9 µM (inactive), respectively.
For `COc1ccc(C(=O)CNc2ccccc2Br)cc1`, the IC50 is 22 µM (active) at Caspase-3, 82.8 µM (active) in data set [1], 6.34 µM (active) in data set [2] and 27.4 µM (active) in data set [3].
Turning to `c1ccc(Cn2nc(-c3ccccc3)nc2-c2ccccc2)cc1`, the IC50 on Caspase-3 is 32 µM (active); in [1] it was 30.4 µM (active); in data set [2], 8.63 µM (active); in data set [3], 25 µM (active).
In the case of `O=C(c1cccc(F)c1)N1CCC2(CC1)CN(c1cccc(-c3ccccc3)c1)C2`, the AC50 entry was “inconclusive” on Cytochrome P450 3A4 and 12.6 µM (inconclusive) at Cytochrome P450 1A2.
Regarding `O=C(CCCN1C(=O)/C(=C/c2ccccc2Cl)SC1=S)NCCCN1CCOCC1`, the IC50 on Caspase-3 was 34.2 µM (active); in data set [1], 43.6 µM (active); in [6] it was > 66 µM (inactive); in data set [7], > 66 µM (inactive); in [2], 14.8 µM (active); in data set [3], 36.7 µM (active).
For `Cn1c(=O)c(-c2ccccc2)nc2cnc(N3CCOCC3)nc21`, the AC50 entry on Cytochrome P450 3A4 was “inconclusive”; at Cytochrome P450 2C19, 39.8 µM (inconclusive); at Cytochrome P450 2C9, 39.8 µM (inconclusive).
On to `COC(=O)N1CCC2(CC1)CN(c1ccccn1)C2`, for which the AC50 result on Cytochrome P450 3A4 is “inconclusive”; on Cytochrome P450 2D6, 10 µM (inconclusive).
As to `O=C(Nc1ccc(Br)cc1)Nc1ccccc1Cl`, the IC50 is 24.6 µM (active) on Caspase-3, 26.8 µM (active) in data set [1], 7.21 µM (active) in [2] and 7.19 µM (active) in data set [3].
Regarding `O=C(c1ccco1)N1CCC2(CC1)CN(c1ccc(-c3ccccc3)cc1)C2`, the values for the AC50 result on Cytochrome P450 3A4, on Cytochrome P450 2C19 and at Cytochrome P450 1A2 were “inconclusive”, 0.158 µM (inconclusive) and 1 µM (inconclusive), respectively.
As to `Cc1cnc(CNc2cc(-c3ccccc3C)ncn2)cn1`, the AC50 entry at Cytochrome P450 3A4 is “inconclusive”.
Consider `COc1cccc(C(=O)Oc2ccc3ccc(O)cc3c2)c1`, for which the IC50 on Caspase-3 was 40.1 µM (active); in data set [1] it was 17 µM (active); in data set [2] it was 7.37 µM (active); in data set [3], 20.9 µM (active).
For the compound `CCOc1ccc(NC(=O)CSc2nnc(C(C)C)n2CC)cc1`, the IC50 at Steroidogenic factor 1 is 6.03 µM (active); in data set [4], 35.9 µM (inactive); in data set [5], 35.9 µM (inactive).
Consider `C/C(=N\NC(=O)c1cc(C)nc2ccccc12)c1ccccn1`, for which the values for the AC50 (in data set [8]; in the data set on INS1) were 3.37 µM (active) and 0.626 µM (active), respectively. Also, the IC50 on Nonstructural protein 1 is 2.23 µM (active); in data set [9] it was > 80 µM (inactive).
For `Oc1ccc2[nH]cc(CCCCN3CC=C(c4ccccc4)CC3)c2c1` [ROXINDOLE], the AC50 entry at Cytochrome P450 3A4 was “inconclusive”; on Cytochrome P450 2C19, 20 µM (inconclusive); at Cytochrome P450 2C9, 12.6 µM (inconclusive).

Source of the values: ChEMBL document CHEMBL1201862, “PubChem BioAssay data set” (2004).
